Format in all cases: organism-based
Data set [1] deals with Phaseolus vulgaris. Kind of data set: Phytotoxicity against Phaseolus vulgaris (White dry bean) assessed as visual crop injury relative to control. The settings on record: in vivo.
Data set [2] relates to Phaseolus vulgaris. Put plainly: Phytotoxicity against Phaseolus vulgaris (Kidney) dry bean assessed as visual crop injury relative to control. The settings on record: in vivo.
Data set [3] deals with Phaseolus vulgaris. Kind of data set: Phytotoxicity against Phaseolus vulgaris (White dry bean) assessed as reduction in plant height applied pre-emergence relative to control. The settings on record: in vivo. More on the design: scale not given: the % may be the effect or the level left.
The subject of data set [4] is Phaseolus vulgaris. Put plainly: Phytotoxicity against Phaseolus vulgaris (Black dry bean) assessed as reduction in plant height applied pre-emergence relative to control. Also on record: scale not given: the % may be the effect or the level left. The settings on record: in vivo.
The test system of data set [5] is Phaseolus vulgaris. Put plainly: Phytotoxicity against Phaseolus vulgaris (White dry bean) assessed as visual crop injury applied pre-emergence relative to control. The conditions noted are these: in vivo.
In data set [6] the test system is Phaseolus vulgaris. Put plainly: Phytotoxicity against Phaseolus vulgaris (Cranberry dry bean) assessed as visual crop injury applied pre-emergence relative to control. The settings on record: in vivo.
The subject of data set [7] is Phaseolus vulgaris. Kind of data set: Phytotoxicity against Phaseolus vulgaris (Pink dry bean) assessed as visual crop injury applied post-emergence relative to control. The settings on record: in vivo.
Data set [8] has as its system Phaseolus vulgaris. Kind of data set: Phytotoxicity against Phaseolus vulgaris (Kidney dry bean) assessed as visual crop injury applied […] relative to control. The conditions noted are these: in vivo.
Data set [9] deals with Phaseolus vulgaris. Kind of data set: Phytotoxicity against Phaseolus vulgaris (White dry bean) assessed as visual crop injury applied post-emergence relative to control. The settings on record: in vivo, other.
Data set [10] concerns Phaseolus vulgaris. Put plainly: Phytotoxicity against Phaseolus vulgaris (Yellow eye dry bean) assessed as reduction in shoot dry weight applied pre-emergence relative to control. More on the design: scale not given: the % may be the effect or the level left. The conditions noted are these: in vivo.
Data set [11] concerns Phaseolus vulgaris. Kind of data set: Phytotoxicity against Phaseolus vulgaris (White dry bean) assessed as reduction in shoot dry weight applied pre-emergence relative to control. Also on record: scale not given: the % may be the effect or the level left. The settings on record: in vivo.
Data set [12] concerns Phaseolus vulgaris. Put plainly: Phytotoxicity against Phaseolus vulgaris (Pinto dry bean) assessed as reduction in shoot dry weight applied pre-emergence relative to control. More on the design: scale not given: the % may be the effect or the level left. The settings on record: in vivo.
Data set [13] concerns Phaseolus vulgaris. Put plainly: Phytotoxicity against Phaseolus vulgaris (Otebo dry bean) assessed as reduction in shoot dry weight applied pre-emergence relative to control. More on the design: scale not given: the % may be the effect or the level left. The conditions noted are these: in vivo.
Data set [14] deals with Phaseolus vulgaris. Put plainly: Phytotoxicity against Phaseolus vulgaris (Black dry bean) assessed as reduction in shoot dry weight applied pre-emergence relative to control. Also on record: scale not given: the % may be the effect or the level left. The conditions noted are these: in vivo.
The test system of data set [15] is Phaseolus vulgaris. Kind of data set: Phytotoxicity against Phaseolus vulgaris (Yellow eye dry bean) assessed as reduction in plant height applied pre-emergence relative to control. The conditions noted are these: in vivo. Also on record: scale not given: the % may be the effect or the level left.
In data set [16] the test system is Phaseolus vulgaris. Put plainly: Phytotoxicity against Phaseolus vulgaris (Pinto dry bean) assessed as reduction in plant height applied pre-emergence relative to control. More on the design: scale not given: the % may be the effect or the level left. The conditions noted are these: in vivo.
For data set [17], the system named is Phaseolus vulgaris. Put plainly: Phytotoxicity against Phaseolus vulgaris (Otebo dry bean) assessed as reduction in plant height applied pre-emergence relative to control. Also on record: scale not given: the % may be the effect or the level left. The conditions noted are these: in vivo.

The structures appear in SMILES notation.

Consider `CCc1cccc(CC)c1N(COC)C(=O)CCl` [ALACHLOR], for which the Activity in the data set on Phaseolus vulgaris [1] stood at 5.6%; with Phaseolus vulgaris [2] it was 0.5%.

For the compound `C#CCN1C(=O)COc2cc(F)c(N3C(=O)C4=C(CCCC4)C3=O)cc21` [FLUMIOXAZIN], the Activity in the data set with Phaseolus vulgaris [3] was 28%; in the data set on Phaseolus vulgaris [4], 23%; in the data set with Phaseolus vulgaris [5] it was 17%; with Phaseolus vulgaris [6] it was 4%.

As to `CS(=O)(=O)NC(=O)c1cc(Oc2ccc(C(F)(F)F)cc2Cl)ccc1[N+](=O)[O-]` [FOMESAFEN], the Activity is 5% in the data set with Phaseolus vulgaris [7] and 1.4% in the data set with Phaseolus vulgaris [8].

As to `CCc1cnc(C2=NC(C)(C(C)C)C(=O)N2)c(C(=O)O)c1` (stereo not given) [IMAZETHAPYR], the Activity in the data set with Phaseolus vulgaris [3] came out at 40%; in the data set with Phaseolus vulgaris [4], 40%; with Phaseolus vulgaris [9], 11%; with Phaseolus vulgaris [8], 1.8%.

For `CON(C)C(=O)Nc1ccc(Cl)c(Cl)c1` [LINURON], the Activity in the data set with Phaseolus vulgaris [10] turned out to be 26%; with Phaseolus vulgaris [11], 26%; in the data set on Phaseolus vulgaris [12] it was 26%; in the data set on Phaseolus vulgaris [13] it was 26%; with Phaseolus vulgaris [14], 26%; in the data set on Phaseolus vulgaris [15] it was 24%. The Activity in the data set on Phaseolus vulgaris [16] was 24%; in the data set with Phaseolus vulgaris [17], 24%; in the data set with Phaseolus vulgaris [3], 24%; with Phaseolus vulgaris [4], 24%; in the data set on Phaseolus vulgaris [5] it was 49%; in the data set on Phaseolus vulgaris [6], 4%.

In the case of `CCc1cccc(C)c1N(C(=O)CCl)[C@@H](C)COC` [S-METOLACHLOR], the Activity in the data set on Phaseolus vulgaris [14] was 16%.

The values are drawn from ChEMBL document CHEMBL3045522, “Responses of dry beans (Phaseolus vulgaris L.) to sulfentrazone” (Crop Prot, 2007).
